Laboratory results: patent publication US11236087B2, “Highly active pyrazolo-piperidine substituted indole-2-carboxamides active against the hepatitis B virus (HBV)” (AiCuris GmbH & Co. KG, priority 2017, dated 2022)

What was measured:
[1] = Cell viability assay (AlamarBlue) in HepAD38 cells; conditions: human
HBV core protein = target: T1, HBV core protein (UniProt P03146); assay: Biochemical capsid assembly assay (fluorescence quenching); design: species or system hepatitis B virus; conditions: read-out: Assembly Activity (IC50); BODIPY-FL labelled core protein, 300 μM NaCl, read 6 min after start
T1 construct: fused on or other part: BODIPY-FL maleimide label on the C-terminal Cys150
T1 sequence (P03146 whole entry, looked up, the tested form may be a part): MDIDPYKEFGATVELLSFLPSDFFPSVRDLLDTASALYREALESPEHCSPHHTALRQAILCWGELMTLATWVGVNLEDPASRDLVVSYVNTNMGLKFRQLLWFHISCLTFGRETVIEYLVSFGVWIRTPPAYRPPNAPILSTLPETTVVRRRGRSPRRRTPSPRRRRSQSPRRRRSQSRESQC
In short: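 Assembly-induced fluorescence quenching (477/525 nm) was measured 6 min after NaCl addition ([…]), against 2.5 M and 0 M NaCl controls. The labelled C150 core dimer (truncated at 149) at 1.0-2.0 μM in HEPES pH 7.5 was tested with eight half-log compound dilutions, top 100, 31.6 or 10 μM. EC50 was obtained by non-linear fit from triplicates run three times.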

HBV = assay: Determination of HBV DNA from the supernatants of HepAD38 cells (anti-HBV activity); assay type: cell-based, hepatitis B virus; conditions: Hepatitis B virus, 144 h; HBV DNA in HepAD38 supernatant, day 6, qPCR; read-out: Cell Activity (EC50)
In short: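 Supernatant viral DNA was measured by LightCycler qPCR, calibrated with pCH-9/3091 plasmid, 6 days after tetracycline-free HepAD38 cultures received half-log serial compound dilutions; untreated and tetracycline-treated cells served as controls; EC50 was fitted by non-linear regression.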

| Structure (SMILES) | CC50 at 6 days [1] | IC50 (HBV core protein) | EC50 (HBV) |
| --- | --- | --- | --- |
| O=C(c1cc2ccccc2[nH]1)N1CCc2[nH]nc(C(=O)N3CCOCC3)c2C1 [Example 108, 2-[3-(morpholine-4-carbonyl)-1H,4H,5H,6H,7H-pyrazolo[4,3-c]pyridine-5-carbonyl]-1H-indole] | > 100 µM | < 100 µM | 1 to 25 µM |
| CCNC(=O)c1n[nH]c2c1CN(C(=O)c1cc3ccccc3[nH]1)CC2 [Example 109, N-ethyl-5-(1H-indole-2-carbonyl)-1H,4H,5H,6H,7H-pyrazolo[4,3-c]pyridine-3-carboxamide] | > 100 µM | 5 to 10 µM | 1 to 25 µM |
| O=C(c1cc2ccccc2[nH]1)N1CCc2[nH]nc(C(=O)N3CCCCC3)c2C1 [Example 112, 2-[3-(piperidine-1-carbonyl)-1H,4H,5H,6H,7H-pyrazolo[4,3-c]pyridine-5-carbonyl]-1H-indole] | > 32 µM | < 5 µM | < 1 µM |
| CON(C)C(=O)c1n[nH]c2c1CN(C(=O)c1cc3c(Cl)cccc3[nH]1)CC2 [Example 113, 5-(4-chloro-1H-indole-2-carbonyl)-N-methoxy-N-methyl-1H,4H,5H,6H,7H-pyrazolo[4,3-c]pyridine-3-carboxamide] | > 100 µM | < 5 µM | < 1 µM |
| O=C(c1cc2c(F)cccc2[nH]1)N1CCc2[nH]ncc2C1 [Example 114, 4-fluoro-2-{1H,4H,5H,6H,7H-pyrazolo[4,3-c]pyridine-5-carbonyl}-1H-indole] | > 100 µM | < 5 µM | < 1 µM |
| Nc1n[nH]c2c1CN(C(=O)c1cc3ccccc3[nH]1)CC2 [Example 115, 5-(1H-indole-2-carbonyl)-1H,4H,5H,6H,7H-pyrazolo[4,3-c]pyridin-3-amine] | > 100 µM | 5 to 10 µM | 1 to 25 µM |
| Cc1noc(-c2n[nH]c3c2CN(C(=O)c2cc4ccccc4[nH]2)CC3)n1 [Example 116, 2-[3-(3-methyl-1,2,4-oxadiazol-5-yl)-1H,4H,5H,6H,7H-pyrazolo[4,3-c]pyridine-5-carbonyl]-1H-indole] | > 100 µM | 5 to 10 µM | < 100 µM |
| O=C(c1cc2c(F)cc(F)cc2[nH]1)N1C2CCC1c1cn[nH]c1C2 (stereo not drawn) [Example 117, 11-(4,6-difluoro-1H-indole-2-carbonyl)-4,5,11-triazatricyclo[6.2.1.0^2,6]undeca-2(6),3-diene] | > 100 µM | < 100 µM | < 100 µM |
| O=C(c1cc2ccccc2[nH]1)N1CCc2[nH]nc(CO)c2C1 [Example 118, [5-(1H-indole-2-carbonyl)-1H,4H,5H,6H,7H-pyrazolo[4,3-c]pyridin-3-yl]methanol] | > 100 µM | 5 to 10 µM | 1 to 25 µM |
| O=C(c1cc2ccc(Br)cc2[nH]1)N1CCc2[nH]ncc2C1 [Example 119, 6-bromo-2-{1H,4H,5H,6H,7H-pyrazolo[4,3-c]pyridine-5-carbonyl}-1H-indole] | > 100 µM | < 5 µM | < 1 µM |
| O=C(c1cc2cccc(Cl)c2[nH]1)N1CCc2[nH]ncc2C1 [Example 120, 7-chloro-2-{1H,4H,5H,6H,7H-pyrazolo[4,3-c]pyridine-5-carbonyl}-1H-indole] | > 100 µM | 5 to 10 µM | < 1 µM |
| O=C(c1cc2cc(Cl)ccc2[nH]1)N1CCc2[nH]ncc2C1 [Example 122, 5-chloro-2-{1H,4H,5H,6H,7H-pyrazolo[4,3-c]pyridine-5-carbonyl}-1H-indole] | > 100 µM | < 100 µM | 1 to 25 µM |
| O=C(c1cc2ccccc2[nH]1)N1CCc2[nH]nc(C(=O)N3CCCN3)c2C1 [Example 124, 2-[3-(pyrazolidine-1-carbonyl)-1H,4H,5H,6H,7H-pyrazolo[4,3-c]pyridine-5-carbonyl]-1H-indole] | > 32 µM | < 5 µM | < 1 µM |
| CON(C)C(=O)c1n[nH]c2c1CN(C(=O)c1cc3c(F)ccc(F)c3[nH]1)CC2 [Example 125, 5-(4,7-difluoro-1H-indole-2-carbonyl)-N-methoxy-N-methyl-1H,4H,5H,6H,7H-pyrazolo[4,3-c]pyridine-3-carboxamide] | > 100 µM | < 5 µM | < 1 µM |
| CON(C)C(=O)c1n[nH]c2c1CN(C(=O)c1cc3c(Cl)cc(F)cc3[nH]1)CC2 [Example 126, 5-(4-chloro-6-fluoro-1H-indole-2-carbonyl)-N-methoxy-N-methyl-1H,4H,5H,6H,7H-pyrazolo[4,3-c]pyridine-3-carboxamide] | > 32 µM | < 5 µM | < 1 µM |
| CON(C)C(=O)c1n[nH]c2c1CN(C(=O)c1cc3c(F)cc(F)cc3[nH]1)CC2 [Example 127, 5-(4,6-difluoro-1H-indole-2-carbonyl)-N-methoxy-N-methyl-1H4H,5H,6H,7H-pyrazolo[4,3-c]pyridine-3-carboxamide] | > 100 µM | < 5 µM | < 1 µM |
| CON(C)C(=O)c1n[nH]c2c1CN(C(=O)c1cc3c(C)cc(F)cc3[nH]1)CC2 [Example 128, 5-(6-fluoro-4-methyl-1H-indole-2-carbonyl)-N-methoxy-N-methyl-1H,4H,5H,6H,7H-pyrazolo[4,3-c]pyridine-3-carboxamide] | 98 µM | < 5 µM | < 1 µM |
| CON(C)C(=O)c1n[nH]c2c1CN(C(=O)c1cc3c(C(F)(F)F)cccc3[nH]1)CC2 [Example 129, N-methoxy-N-methyl-5-[4-(trifluoromethyl)-1H-indole-2-carbonyl]-1H,4H,5H,6H,7H-pyrazolo[4,3-c]pyridine-3-carboxamide] | > 32 µM | < 5 µM | < 1 µM |
| CON(C)C(=O)c1n[nH]c2c1CN(C(=O)c1cc3c(C)cccc3[nH]1)CC2 [Example 131, N-methoxy-N-methyl-5-(4-methyl-1H-indole-2-carbonyl)-1H,4H,5H,6H,7H-pyrazolo[4,3-c]pyridine-3-carboxamide] | > 100 µM | < 5 µM | < 1 µM |
| O=C(c1cc2ccccc2[nH]1)N1CCc2[nH]nc(C(=O)N3CCCO3)c2C1 [Example 133, 2-[3-(1,2-oxazolidine-2-carbonyl)-1H,4H,5H,6H,7H-pyrazolo[4,3-c]pyridine-5-carbonyl]-1H-indole] | > 100 µM | < 5 µM | < 100 µM |
| Cc1cc(F)cc2[nH]c(C(=O)N3CCc4[nH]ncc4C3)cc12 [Example 135, 6-fluoro-4-methyl-2-{1H,4H,5H,6H,7H-pyrazolo[4,3-c]pyridine-5-carbonyl}-1H-indole] | > 100 µM | < 5 µM | < 1 µM |
| Cc1cccc2[nH]c(C(=O)N3CCc4[nH]ncc4C3)cc12 [Example 136, 4-methyl-2-{1H,4H,5H,6H,7H-pyrazolo[4,3-c]pyridine-5-carbonyl}-1H-indole] | > 100 µM | < 5 µM | < 1 µM |
| CON(C)C(=O)c1n[nH]c2c1CN(C(=O)c1cc3ccccc3[nH]1)CC2 [Example 138, 5-(1H-indole-2-carbonyl)-N-methoxy-N-methyl-1H,4H,5H,6H,7H-pyrazolo[4,3-c]pyridine-3-carboxamide] | > 100 µM | < 5 µM | < 1 µM |
| CCOC(=O)c1n[nH]c2c1CN(C(=O)c1cc3ccccc3[nH]1)CC2 [Example 140, ethyl 5-(1H-indole-2-carbonyl)-1H,4H,5H,6H,7H-pyrazolo[4,3-c]pyridine-3-carboxylate] | > 100 µM | < 5 µM | < 100 µM |
| O=C(c1cc2c(Cl)cc(F)cc2[nH]1)N1CCc2[nH]ncc2C1 [Example 142, 4-chloro-6-fluoro-2-{1H,4H,5H,6H,7H-pyrazolo[4,3-c]pyridine-5-carbonyl}-1H-indole] | > 100 µM | < 5 µM | < 1 µM |
| C[C@H]1CCCCN1C(=O)c1n[nH]c2c1CN(C(=O)c1cc3ccccc3[nH]1)CC2 [Example 147, 2-{3-[(2S)-2-methylpiperidine-1-carbonyl]-1H,4H,5H,6H,7H-pyrazolo[4,3-c]pyridine-5-carbonyl}-1H-indole] | > 10 µM | 5 to 10 µM | < 1 µM |
| C[C@@H]1CCCCN1C(=O)c1n[nH]c2c1CN(C(=O)c1cc3ccccc3[nH]1)CC2 [Example 148, 2-{3-[(2R)-2-methylpiperidine-1-carbonyl]-1H,4H,5H,6H,7H-pyrazolo[4,3-c]pyridine-5-carbonyl}-1H-indole] | > 10 µM | 5 to 10 µM | 1 to 25 µM |
| CC(=O)NCCN(C)C(=O)c1n[nH]c2c1CN(C(=O)c1cc3ccccc3[nH]1)CC2 [Example 149, N-(2-{1-[5-(1H-indole-2-carbonyl)-1H,4H,5H,6H,7H-pyrazolo[4,3-c]pyridin-3-yl]-N-methylformamido}ethyl)acetamide] | > 10 µM | < 100 µM | 1 to 25 µM |
| CN(CCS(C)(=O)=O)C(=O)c1n[nH]c2c1CN(C(=O)c1cc3ccccc3[nH]1)CC2 [Example 150, 5-(1H-indole-2-carbonyl)-N-(2-methanesulfonylethyl)-N-methyl-1H,4H,5H,6H,7H-pyrazolo[4,3-c]pyridine-3-carboxamide] | > 10 µM | < 100 µM | 1 to 25 µM |
